The assay concerns T1, Nit09.
T1 construct: His6-tagged, expressed in E. coli TOP10 from pBAD18, Ni-TED purified; gene 1005 bp
In words: GDH-coupled NADH oxidation at […] nm, Michaelis-Menten fit. Conditions: 37 °C, 0.1 M HEPES pH 8.0; fit up to 6 mM, substrate inhibition above 10 mM. Format: biochemical, uncultured bacterium.

For `N#CCc1ccccc1` [phenylacetonitrile], the Km (as a rule, the substrate concentration at which the rate is half of its maximum) was determined as 1290 µM.

(Values after publication PMC7228900, “From sequence to function: a new workflow for nitrilase identification” (Applied Microbiology and Biotechnology, 2020).)
